Measurements published in article PMC6361841, “Repurposing of Drugs as Novel Influenza Inhibitors From Clinical Gene Expression Infection Signatures” (Frontiers in Immunology, 2019).
Counter-ions that a name gives are not always drawn. Like-named read-outs stand apart in the source and are kept apart here.

Key:
[1] = system: A/Lyon/969/09 (H1N1)pdm09 virus; experiment: microbe, parasite or virus in culture; assay type: cell-based, influenza A(H1N1)pdm09 virus
[2] = system: A/Texas/126/2016 (H3N2); experiment: Antiviral efficacy in A549 cells, H3N2 strain; assay type: cell-based, influenza virus
[3] = system: B/Massachusetts/2/2106; experiment: Antiviral efficacy in A549 cells, B strain; assay type: cell-based, influenza virus
[4] = system: A(H1N1)pdm09 virus; assay type: cell-based, influenza virus; settings: for Viral titer, Dilution #2: virus 10^5 TCID50/mL pre-incubated 1 h; for Viral titer, Dilution #2 / Viral titer, Dilution #1: diltiazem 9 µM, etilefrine 18 µM, oseltamivir 1 µM; for Viral titer, Dilution #1: virus 10^6 TCID50/mL pre-incubated 1 h; for Mean relative Viral production: virus pre-incubated 1 h, relative to PBS control
[5] = system: influenza A/Quebec/144147/09 (H1N1)pdm09 virus; assay type: in vivo, C57BL/6N mice; settings: for Clinical benefit in terms of survival vs saline (placebo) group: mg/kg/day: oseltamivir 10, monensin 10, diltiazem 90, etilefrine 3, lanatoside C 100, prednisolone 5, flucytosine 240, felbinac 5, timolol 50; for Weight loss vs saline (placebo) group: oseltamivir 10, diltiazem 90, etilefrine 3 mg/kg/day
[6] = system: influenza A/Quebec/144147/09 (H1N1)pdm09 virus; assay type: in vivo, C57BL/6N mice; settings: […]; for Survival: mg/kg/day: oseltamivir 10, monensin 10, diltiazem 90, etilefrine 3; for Weight loss: oseltamivir 10, monensin 10, diltiazem 90 mg/kg/day
[7] = system: A/Lyon/969/09 (H1N1)pdm09 virus; experiment: microbe, parasite or virus in culture; assay type: cell-based, influenza A(H1N1)pdm09 virus; settings: Influenza A virus, 6 h pre-treatment only, A549, Figure 2B
[8] = system: influenza A/Lyon/969/09 (H1N1)pdm09 virus; assay type: cell-based
[9] = system: MucilAir® human airway epithelium; assay type: cell-based
[10] = Influenza A virus, H1N1, 48 h, pre-treatment/treatment in vitro, A549, […], read-out: EC50
[11] = pre-treatment/treatment in vitro, A549, […], read-out: EC50
[12] = 24 h p.i., oseltamivir 0.1 µM, diltiazem 9 µM or both
[13] = 48 h p.i., oseltamivir 0.1 µM, diltiazem 9 µM or both
[14] = 96 h p.i., oseltamivir 0.1 µM, diltiazem 9 µM or both
[15] = oseltamivir 1 μM, diltiazem 90 μM

CCN(CC)CCOC(=O)C(c1ccccc1)c1ccccc1 [Adiphenine]
EC50 [1, 10]: 6.29 nM

N=C(N)NC(=O)c1nc(Cl)c(N)nc1N [Amiloride]
EC50 [1, 10]: 0.41 nM

O=c1cc(-c2ccc(O)cc2)oc2cc(O)cc(O)c12 [Apigenin]
EC50 [1, 10]: 0.21 nM

CC1(C)S[C@@H]2[C@H](NC(=O)Cc3ccccc3)C(=O)N2[C@H]1C(=O)O [Benzathin Benzylpenicilline, Benzathine benzylpenicillin]
EC50 [1, 11]: 0.26 nM

OC(CCN1CCCCC1)(c1ccccc1)C1CC2C=CC1C2 (centres unmarked) [Biperiden]
EC50 [1, 10]: 0.38 nM

O=NN(CCCl)C(=O)NCCCl [Carmustine]
EC50 [1, 10]: 0.07 nM

CN(C)CCN(Cc1ccc(Cl)cc1)c1ccccn1 [Choropyramine, Chloropyramine]
EC50 [1, 10]: 0.07 nM

CCCCCCC[N+](CC)(CC)CCCCc1ccc(Cl)cc1 [Clofilium tosylate]
EC50 [1, 11]: 0.16 nM

CCNCC(O)c1cccc(O)c1 (centres unmarked) [Etilefrine]
EC50 [1, 10]: 0.34 nM | Relative Viral production ([2]; dose CMAP): 1 % of mock-treated | Viral titer ([2]; dose CMAP): 3.63 log TCID50/ml | Relative Viral production ([2]; dose CMAP/10): 14.7 % of mock-treated | Viral titer ([2]; dose CMAP/10): 4.8 log TCID50/ml | Relative Viral production ([3]; dose CMAP): 7.3 % of mock-treated | Viral titer ([3]; dose CMAP): 3.97 log TCID50/ml | Relative Viral production ([3]; dose CMAP/10): 15.0 % of mock-treated | Viral titer ([3]; dose CMAP/10): 4.3 log TCID50/ml | Effect of virus pre-incubation on final viral titers vs PBS-incubated controls ([4]; pre-incubation before infection): did not affect final viral titers | Viral titer, Dilution #2 [4]: 4.63 log TCID50/ml | Viral titer, Dilution #1 [4]: 5.30 log TCID50/ml | Mean relative Viral production [4]: 100.0 % of mock-treated | Clinical benefit in terms of survival vs saline (placebo) group [5]: significantly improved survival | Weight loss vs saline (placebo) group [5]: significantly improved | Reduction in lung viral titers (LVTs) on day 5 p.i. ([5]; mouse, in vivo): at least 1 log | Survival [6]: 50%

O=C(O)Cc1ccc(-c2ccccc2)cc1 [Felbinac]
EC50 [1, 10]: 34.4 nM | Clinical benefit in terms of survival vs saline (placebo) group [5]: no clinical benefit

Nc1[nH]c(=O)ncc1F [Flucytosine]
EC50 [1, 10]: 2.02 nM | Clinical benefit in terms of survival vs saline (placebo) group [5]: no clinical benefit

Nc1nc(=O)c2nc(CNc3ccc(C(=O)N[C@@H](CCC(=O)O)C(=O)O)cc3)cnc2[nH]1 [Folic acid]
EC50 [1, 10]: 0.22 nM

CC(=O)O[C@H]1C[C@@]2(C)[C@@H](C[C@@H](O)[C@H]3[C@@]4(C)CC[C@@H](O)[C@@H](C)[C@@H]4CC[C@@]32C)/C1=C(\CCC=C(C)C)C(=O)O [Fusidic acid]
EC50 [1, 10]: 0.038 nM

O=c1c(-c2ccc(O)cc2)coc2cc(O)cc(O)c12 [Genistein]
EC50 [1, 10]: 1.06 nM

CNC(C)C1CCC(N)C(OC2C(N)CC(N)C(OC3OCC(C)(O)C(NC)C3O)C2O)O1 (centres unmarked) [Gentamycin, Gentamicin]
EC50 [1, 10]: 0.039 nM

CC(=O)O[C@H]1C[C@H](O[C@H]2[C@@H](O)C[C@H](O[C@H]3[C@@H](O)C[C@H](O[C@H]4CC[C@@]5(C)[C@H](CC[C@@H]6[C@@H]5C[C@@H](O)[C@]5(C)[C@@H](C7=CC(=O)OC7)CC[C@]65O)C4)O[C@@H]3C)O[C@@H]2C)O[C@H](C)[C@H]1O[C@@H]1O[C@H](CO)[C@@H](O)[C@H](O)[C@H]1O [Lanatoside C]
Clinical benefit in terms of survival vs saline (placebo) group [5]: no clinical benefit

CC[C@@]1([C@@H]2O[C@@H]([C@H]3O[C@@](O)(CO)[C@H](C)C[C@@H]3C)C[C@@H]2C)CC[C@H]([C@]2(C)CC[C@]3(C[C@H](O)[C@@H](C)[C@@H]([C@@H](C)[C@@H](OC)[C@H](C)C(=O)O)O3)O2)O1 [Monensin]
EC50 [7]: 110 nM | EC50 [1, 10]: 3.27 nM | Clinical benefit in terms of survival vs saline (placebo) group [5]: clinical improvement | Survival [6]: completely prevented mortality | Weight loss [6]: reduced weight loss

CCOC(=O)C1=C[C@@H](OC(CC)CC)[C@H](NC(C)=O)[C@@H](N)C1 [Oseltamivir]
Viral titer, Dilution #2 [4]: 4.30 log TCID50/ml | Viral titer, Dilution #1 [4]: 5.63 log TCID50/ml | Mean relative Viral production [4]: 130.3 % of mock-treated | Clinical benefit in terms of survival vs saline (placebo) group [5]: clinical improvement | Weight loss vs saline (placebo) group [5]: clinical improvement | Survival [6]: completely prevented mortality | Mice rescued from death ([6]; oseltamivir 10 mg/kg/day, diltiazem 90 mg/kg/day): 40% | Weight loss [6]: reduced weight loss | Apical viral titer log TCID50/ml (CI95) [8, 12]: 6.02 (4.69 – 7.35) log TCID50/ml | Apical viral titer log TCID50/ml (CI95) [8, 13]: 8.61 (7.43 – 9.80) log TCID50/ml | Apical viral titer log TCID50/ml (CI95) ([8]; 72 h p.i., oseltamivir 0.1 µM, diltiazem 9 µM or both): 8.30 (7.73 – 8.87) log TCID50/ml | Apical viral titer log TCID50/ml (CI95) [8, 14]: 7.80 (6.56 – 9.04) log TCID50/ml | Apical viral titer log TCID50/ml (CI95) ([8]; 96 h p.i., oseltamivir 1 µM, diltiazem 90 µM or both): 7.09 (5.79 – 8.40) log TCID50/ml | Effect on viral replication vs untreated control ([8]; oseltamivir 0.1 μM, diltiazem 9 μM (CMAP) or both, from 5 h p.i., once daily 5 days): no significant advantage over the untreated control | Reduction in apical viral titers at 48 h p.i. compared to the untreated control [8, 15]: > 3 log | Virus on the basolateral medium [8, 15]: No virus was detected | Delay of the peak of viral production ([8]; oseltamivir 1 μM, diltiazem 90 μM (10-fold CMAP)): 24 h | Reduction in apical peak viral titers compared to the untreated control ([8]; oseltamivir 1 μM, diltiazem 90 μM or both, 48 h p.i. untreated vs. 72 h p.i. treated): > 2 log | Δ TEER (CI95) [9, 12]: 8.98 (-81.72 – 99.68) Ohm/cm^2 | Δ TEER (CI95) ([9]; 24 h p.i., oseltamivir 1 µM, diltiazem 90 µM or both): -24.32 (-58.00 – 9.36) Ohm/cm^2 | Δ TEER (CI95) [9, 13]: 20.09 (-39.75 – 79.94) Ohm/cm^2 | Δ TEER (CI95) ([9]; 48 h p.i., oseltamivir 1 µM, diltiazem 90 µM or both): 7.26 (-85.73 – 100.3) Ohm/cm^2 | Δ TEER (CI95) [9, 14]: -209.2 (-271.5 – -146.8) Ohm/cm^2 | TEER during the time-course of infection ([9]; oseltamivir 1 μM, diltiazem 90 μM or both): stabilized TEER

CC(C)NCC(O)COc1cccc2[nH]ccc12 (centres unmarked) [Pindolol]
EC50 [1, 10]: 0.79 nM

CNC(=C[N+](=O)[O-])NCCSCc1ccc(CN(C)C)o1 [Ranitidine]
EC50 [7]: 1100 nM | EC50 [1, 10]: 0.68 nM

NC(=O)c1ncn([C@@H]2O[C@H](CO)[C@@H](O)[C@H]2O)n1 [Ribavirin]
EC50 ([1]; Influenza A virus, H1N1, A549, 48 h): 0.86 nM

CC[C@H]1OC(=O)[C@H](C)[C@@H](O[C@H]2C[C@@](C)(OC)[C@@H](O)[C@H](C)O2)[C@H](C)[C@@H](O[C@@H]2O[C@H](C)C[C@H](N(C)C)[C@H]2O)[C@](C)(O)C[C@@H](C)/C(=N\OCOCCOC)[C@H](C)[C@@H](O)[C@]1(C)O [Roxythromycin, Roxithromycin]
EC50 [1, 10]: 0.14 nM

COc1cc(NS(=O)(=O)c2ccc(N)cc2)nc(OC)n1 [Sulfadimethoxine]
EC50 [1, 10]: 0.69 nM

COc1cc(NS(=O)(=O)c2ccc(N)cc2)ncn1 [Sulfamonomethoxine]
EC50 [1, 10]: 0.28 nM

CC(C)(C)NC[C@H](O)COc1nsnc1N1CCOCC1 [Timolol]
Clinical benefit in terms of survival vs saline (placebo) group [5]: no clinical benefit

c1ccc(CC2=NCCN2)cc1 [Tolazoline]
EC50 [1, 10]: 0.93 nM

C[C@H](CCC(=O)O)[C@H]1CC[C@H]2[C@@H]3[C@@H](O)C[C@@H]4C[C@H](O)CC[C@]4(C)[C@H]3CC[C@]12C [Urseodeoxycholic acid, Ursodeoxycholic acid]
EC50 [1, 10]: 0.61 nM

C[C@]12C=CC(=O)C=C1CC[C@@H]1[C@@H]2[C@@H](O)C[C@@]2(C)[C@H]1CC[C@]2(O)C(=O)CO [prednisolone]
Clinical benefit in terms of survival vs saline (placebo) group [5]: no clinical benefit
